{"source": "patent US20220296522A1", "about": "“BRYOID COMPOSITIONS, METHODS OF MAKING AND USE THEREOF” (Aphios Corporation, priority 2021, published 2022)", "key": {"[1]": {"system": "alpha-secretase", "experiment": "alpha-secretase activity in SHSY-5Y neuroblastoma cells (FIG. 10)", "assay_type": "cell-based", "conditions": "10−9 M, versus Bryostatin-1", "description": "Purified Bryoids at 10−^9 M are shown to increase alpha-secretase activity in SHSY-5Y neuroblastoma cells in FIG. 10."}, "[2]": {"experiment": "Solubility of Bryostatin-1 in solvents and oils by normal phase HPLC", "assay_type": "physicochemical", "conditions": "for Concentration: theoretical 2.5 mg/100 mL", "experimental": "Based on the hydrophobicity of Bryostatin-1, we developed an oil-based formulation of Bryostatin-1. […] Isopropyl alcohol, Extra Virgin olive oil, sesame oil, and vegetable oil were all used as solvents. Thirty microliters of the stock solution were placed in each of 4 clean, dry HPLC vials. The ethanol was allowed to evaporate, leaving 25 micrograms in the vial. Then, 1.0 mL of the solvent was placed in the vial and vortexed to ensure proper mixing. These samples were then injected on a normal phase HPLC system, with a gradient of 10%-70% isopropyl alcohol in hexane as the mobile phase (specifically developed for this experiment). The concentration of each vial theoretically should be 2.5 mg/100 mL.\nThe reason for the higher concentrations than the standard (isopropyl alcohol) is due to the baseline. While attempting a baseline subtraction for each oil, there was negative absorbance so the blank IPA sample was subtracted from each sample's baseline. While this incorporates a little more area for integration, the amount of Bryostatin in the oil was quantifiable."}, "[3]": {"system": "B6C3-Tg (APPswe, PSEN1 dE9) 85Dbo/J mice", "experiment": "Morris water maze in APP/PS1 Alzheimer's disease mice", "assay_type": "in vivo, mouse", "experimental": "Mouse strain B6C3-Tg carrying mutant Swedish Amyloid precursor protein (sweAPP) and PS I (presenilin-1) genes associated with early onset Alzheimer's disease were subjected to water maze tests at 5-6 months of age.\nIn vivo studies were conducted using the Morris water maze to evaluate cognitive impairments and restoration in response to drug treatments. These studies used the mouse strain B6C3-Tg (APPswe, PSEN1 dE9) 85Dbo/J mice (MMRRC, Jackson Labs)."}, "[4]": {"system": "TS65DN transgenic mouse model of Down syndrome", "experiment": "Morris water maze in TS65DN mouse model of Down syndrome, intranasal", "assay_type": "in vivo", "conditions": "PET formulation", "description": "In this model, wild type mice improved over the 4 trials shown as a reduction in latency within the trial.\nTS65DN mouse model of Down syndrome were purchased from MMRRC/Jackson Labs at 20-24 weeks of age and maintained in the LSUHSC-S vivarium. Segmentally trisomic Ts65Dn mice provide a postnatal model for Down syndrome."}, "[5]": {"experiment": "Biodistribution of radio-labeled Bryostatin-1 by different administration routes", "assay_type": "in vivo, mouse", "description": "It is worth mentioning that oil formulations were used for […] and intraperitoneal studies. Aqueous formulations were used for intravenous administration and PET formulation for intranasal administration."}, "[6]": {"system": "SK-HEP1 liver cells", "experiment": "Metabolism by SK-HEP1 liver cells", "assay_type": "in vitro ADME", "conditions": "within 24 h"}, "[7]": {"conditions": "over 72 h following intranasal administration"}}, "note": "Entries after “also recorded” stand apart in the source; their conditions may differ."}
{"compound": "bryostatin-3 26-ketone [Bryoid B16]", "values": [{"measurement": "alpha-secretase activity", "setting": "[1]", "result": "improve the production of alpha-secretase over Bryostatin-1"}]}
{"compound": "CCC/C=C/C=C/C(=O)O[C@H]1/C(=C/C(=O)OC)C[C@H]2C[C@H]([C@@H](C)O)OC(=O)C[C@H](O)C[C@@H]3C[C@H](OC(C)=O)C(C)(C)[C@](O)(C[C@@H]4C/C(=C/C(=O)OC)C[C@H](/C=C/C(C)(C)[C@]1(O)O2)O4)O3", "note": "[Bryostatin-1]", "values": [{"measurement": "Concentration", "setting": "[2]; Extra Virgin Olive Oil", "result": 2.9945, "unit": "mg/100 mL"}, {"measurement": "Concentration", "setting": "[2]; Extra Virgin olive with mixed natural tocopherol antioxidants, lecithin and medium chain triglyceride emulsifiers", "result": 2.4431, "unit": "mg/100 mL"}, {"measurement": "Concentration", "setting": "[2]; Isopropyl Alcohol (standard)", "result": 2.6035, "unit": "mg/100 mL"}, {"measurement": "Concentration", "setting": "[2]; Vegetable Oil", "result": 2.5475, "unit": "mg/100 mL"}, {"measurement": "solubility in oils", "setting": "[2]; variety of oils", "result": "soluble in a variety of different types of oil; also recorded: soluble in a variety of oils, with the best results in Extra Virgin Olive Oil, Vegetable Oil, and Extra Virgin Olive Oil with excipients"}, {"measurement": "protection against memory loss in water maze", "setting": "[3]; 5 micrograms/mouse on alternative days orally in oil formulation, APP/PS1 mice 5-6 months of age, versus control animals", "result": "significant protection against Alzheimer's disease mediated memory loss"}, {"measurement": "responses in water maze", "setting": "[3]; i.p. treated mice", "result": "did not find that i.p. treated mice showed as good responses"}, {"measurement": "inter-trial water maze performance (latency)", "setting": "[4]; 0.01 μg intranasal", "result": "did not show this same improvement"}, {"measurement": "inter-trial water maze performance (latency)", "setting": "[4]; 0.1 μg intranasal, p<0.05 compared to vehicle treated Down's mice", "result": "inter-trial interval improvement"}, {"measurement": "inter-trial water maze performance (latency)", "setting": "[4]; 1 μg intranasal, p<0.001 compared to vehicle treated transgenic Down's mice", "result": "significant improvement"}, {"measurement": "tissue distribution of 3H-labeled tracer", "setting": "[5]; 8 h following intranasal administration, normalized to CPM/g", "result": "most abundant in hippocampus, large intestine and urine"}, {"measurement": "tissue distribution of 3H-labeled tracer", "setting": "[5]; 12 h following intranasal administration", "result": "most abundant in hippocampus and urine"}, {"measurement": "tissue distribution of 3H-labeled tracer", "setting": "[5]; 24 h following intranasal administration", "result": "most abundant in hippocampus, urine and feces"}, {"measurement": "tissue distribution of 3H-labeled tracer", "setting": "[5]; 48 h following intranasal administration", "result": "most abundant in hippocampus and fat tissues"}, {"measurement": "accumulation in different tissues", "setting": "[5]; i.p. dosed group", "result": "highest tissue accumulations"}, {"measurement": "accumulation in different tissues", "setting": "[5]; i.v. dosed group", "result": "highest tissue accumulations"}, {"measurement": "accumulation in hippocampus and lung", "setting": "[5]; intranasal delivery, by 4 h", "result": "relative high levels of Bryostatin-1 accumulation"}, {"measurement": "accumulation in different tissues", "setting": "[5]; oral route (oil formulation)", "result": "lowest"}, {"measurement": "Hippocampal content", "setting": "[5]; [7]", "result": "relatively high hippocampal uptake rates were achieved and maintained; also recorded: slow rate of loss over 72 h"}, {"measurement": "Lung content", "setting": "[5]; [7]", "result": "a peak at 4 h and rapid excretion by 8 h; also recorded: rapid rate of appearance at 4h followed by rapid loss at 8 h"}, {"measurement": "metabolism by liver cells", "setting": "[6]", "result": "not significantly metabolized"}]}
{"compound": "CCC/C=C/C=C/C(=O)O[C@H]1[C@H]2C=C3C[C@H]([C@@H](C)O)OC(=O)C[C@H](O)C[C@@H]4C[C@H](OC(C)=O)C(C)(C)[C@](O)(C[C@@H]5C/C(=C\\C(=O)OC)C[C@H](/C=C/C(C)(C)[C@]1(OC(=O)C2)O3)O5)O4", "note": "[Bryoid B3, Bryostatin-3]", "values": [{"measurement": "alpha-secretase activity", "setting": "[1]", "result": "improve the production of alpha-secretase over Bryostatin-1"}]}
